Reference: a melting point compilation (Tetko et al.; mined from patent text by program, amines drawn as free bases though some values may be those of a salt)

SMILES	melting point
O=C(/C=C/c1ccc2cc[nH]c2c1)CC(=O)/C=C/c1ccc(OCc2ccccn2)cc1O	188 to 190 °C
COc1cc(C(=O)O)ccc1-c1ccncc1	239 to 241 °C
COc1cc(C(=O)O)ccc1Cc1cccc2ccc(CCCC(=O)N(C)C)cc12	231 to 232 °C
COc1cc2nccn2c(OC)n1	120 to 121 °C
CCCCc1ccc(C(=O)NC(C)(C(N)=O)C(C)C)nc1 (stereo unspecified)	83 to 86 °C
CCC(CO)Nc1ccc(-c2cccc(C(F)(F)F)c2)nn1 (stereo unspecified)	84 to 87 °C
O=C(O)c1cn(C2CC2)c2nc(N3CCCC(n4ccnn4)C3)c(F)cc2c1=O (stereo unspecified)	251 to 254 °C
O=c1c(C(F)(F)F)cn(C2CC(O)C(CO)O2)c(=O)n1C1CCCO1 (stereo unspecified)	127 to 128 °C
CCCCCC(=O)NC[C@H](O)CC(=O)NN	172 °C
Nc1cccc(O)c1Cl	153 °C
CC(Oc1ccc2nc(NC(=O)CCCN3CCOCC3)sc2c1)c1c(Cl)ccc(F)c1Cl (stereo unspecified)	141 to 145 °C
O=C(O)c1cccc(OCC(=O)C23CC4CC(CC(C4)C2)C3)c1	156 °C
CCOC(=O)c1cn(CCO)c2cc(Cl)c(F)cc2c1=O	202 °C
CCOC(=O)c1cn(-c2ccc(F)c(OC)c2)c2c(Cl)c(F)c(F)cc2c1=O	245 to 246 °C
COC(=O)Cn1sc2nc(C)cc(C)c2c1=O	89 to 91 °C
CCCc1nc2c(N)nc3cccnc3c2n1CCCCN(OC)C(=O)Nc1ccccc1	155 to 156 °C
CCOC(=O)c1ccc(/C=C(\C)c2ccc3c(c2)C(C)(C)CCO3)cc1	86 to 87 °C
CCCCCCCc1ccc(C(=O)c2cccc(C(=O)O)c2)cc1	124 to 126 °C
O=C(NC1CC1)c1ccc(-c2ccc3nnn(Cc4ccc5ncccc5c4)c3n2)cc1F	193 to 195 °C
Cc1ccc(-c2c3ccccc3c(-c3ccc(C)cc3)c3cc(Cl)ccc23)cc1	202 to 204 °C
O=C(O)c1nc2cc(N3CCN(c4ccc(F)cc4)CC3)c([N+](=O)[O-])cc2[nH]c1=O	236 to 238 °C
O=C1CN(c2ccncc2)CCN1	268 to 270 °C
CCCC1N=C2C(=C(C)C(Cl)=NC2(N)CCOCCNC(=O)c2ccccc2)N1 (stereo unspecified)	188 to 189 °C
COC(=O)c1sc2c(c1N)c1ccccc1c(=O)n2-c1ccccc1Cl	244 to 246 °C
CCn1cc(C(=O)O)c(=O)c2cc(F)c(N3CCNC(c4ccsc4)C3)cc21 (stereo unspecified)	198 to 200 °C
Cc1ccc(-c2nc3n(n2)Cc2ccccc2-3)cc1	207 to 208 °C

SMILES	melting point
CC1(C)CCC(C)(C)c2cc(-c3cc(-c4ccc(C(=O)NO)cc4)ccc3-c3ccccc3)ccc21	105 to 108 °C
CCOC(=O)c1cc(I)c(F)c(F)c1F	33 to 34 °C
Cc1cc(O)nc(C=Cc2ccccc2)n1	217 to 219 °C
CCCCOc1ccc(S(=O)(=O)C2(C(=O)O)CCN(CCOc3ccccc3)CC2)cc1	204 °C
C[C@H]1C=CC2=C[C@@H](O)C[C@H](OC(=O)C(C)(C)Oc3ccccc3)[C@@H]2[C@H]1CC[C@@H]1C[C@@H](O)CC(=O)O1	155 to 158 °C
C=C(C)c1c(OCC)cc(Cc2cnc(N)nc2N)cc1OCC	196 to 198 °C
CCOC(=O)[C@@H](NS(=O)(=O)c1ccc(N2CCC(=O)CC2)cc1)C(C)C	77 to 80 °C
COc1ccc(CC#N)c2c1OC(C)(C)O2	58 to 59 °C
O=C(O)c1cn(-c2ccccc2)c2cc(-c3ccncc3)ccc2c1=O	> 325 °C
COc1ccc(CN(C)CCCSc2ccc(NC(=O)c3cccc4c(=O)c5cccc(SC)c5[nH]c34)cc2)cc1OC	142 °C
Cc1ccccc1C(Oc1cc(OCc2ccc3ocnc3c2)ccc1C#N)C(=O)O (racemic)	189 to 191 °C
CCN1CCCC(CC)(c2ccc(Nc3ncc4ccc(-c5ccccc5N(C)S(C)(=O)=O)n4n3)cc2)C1 (stereo unspecified)	93 to 101 °C
COC1CCC2C3CCC4CC(O)CCC4(C)C3CCC12C (stereo unspecified)	150 to 152 °C
CCCCc1cc(C#N)sc1-c1ccc2c(c1)C(C)(C)OC(=S)N2	174 to 175 °C
CCOCCCNC(=O)c1ccc(S(=O)(=O)NC(=O)c2ccc(C(=O)NCC(=O)O)nc2)cc1	109 °C
COc1c(N2CC[C@@H](C(C)(C)N)C2)c(F)cc2c(=O)c(C(=O)O)cn(C3CC3)c12	225 to 227 °C
CCOC(=O)C1(C)C(=O)Nc2cc3[nH]c(-c4ccccc4)nc3cc21 (stereo unspecified)	178 to 182 °C
CC12CC[C@](C(=O)N3CCC4(C=Cc5ccccc54)CC3)(OC1=O)C2(C)C	215 to 216 °C
O=c1[nH]c(=S)c2[nH]cnc2n1Cc1ccc(Cl)cc1	274 to 278 °C
CC(C)(C)NC(=O)C1C(C=C(Cl)Cl)C1(C)C (stereo unspecified)	108 to 109 °C
COc1ccc(S(=O)(=O)C2(C(=O)O)CCN(Cc3ccc(-c4cccs4)cc3)CC2)cc1	235 °C
CC=NN(C(=O)c1ccccc1)c1ccc(OC)cc1	68 to 70 °C
CS(=O)(=O)Nc1ccc(C(=O)c2ccc(Cl)cc2)cc1	198 to 200 °C
CN1Cc2cccc3[nH]cc(c23)C1	185 to 186 °C
CN(c1ccc(Cl)cc1)S(=O)(=O)c1cccc(NC(=O)c2ccc(Br)cc2)c1	187 to 189 °C
CCCCCCCCCCCCCCCCNc1ccc(C=O)cc1	66.5 to 67.5 °C

SMILES	melting point
CC(C)[C@H](COc1ccccc1)Nc1nc(Cl)nc2c1ncn2[C@@H]1O[C@H](CO)[C@@H](O)[C@H]1O	95 to 100 °C
CCCOc1ccc(F)cc1OCCN1C(=O)c2ccccc2C1=O	102 to 103 °C
N#Cc1oc(-c2ccc(Cl)cc2)c2ccccc12	128 to 130 °C
Clc1ccc2nccc(Cl)c2c1	101 to 104 °C
Cc1cc(C2=CC(c3cc(Cl)cc(Cl)c3)(C(F)(F)F)OC2)ccc1C(=O)OC(C)(C)C (stereo unspecified)	160 to 162 °C
Nc1nc2c(ncn2CCOCP(=O)(O)O)c(=O)[nH]1	> 260 °C
Cc1nc2n(c(=O)c1CCN1CCC(c3noc4cc(F)ccc34)CC1)CC(O)CC2 (stereo unspecified)	156 °C
Cc1nnc(C(C)(C)C)c(=O)n1N	155 to 157 °C
CN(C)CCNc1nc2cc(Cl)c(Cl)cc2nc1-c1ccccn1	95 to 97 °C
CS(=O)(=O)c1ccc(-c2cnn(-c3csc4ccccc34)c(=O)c2-c2ccc(F)cc2)cc1	265 to 267 °C
CN(C)C1CCN(c2nccc(Oc3ccc(NC(=O)c4cc(F)cc(N5CCCCC5)c4)c4ccccc34)n2)C1 (stereo unspecified)	93 to 94 °C
COc1ccc2c(c1)c(CC(O)(P(=O)(O)O)P(=O)(O)O)c(C)n2C(=O)c1ccc(Cl)cc1	202 °C
COc1ccc2c(c1OC)C(=O)c1c-2c(Cl)nc2ccc(Cl)cc12	149 to 151 °C
CCNC(=O)c1ccc(-n2nnc(C(=O)NC3CC3)c2CCCCCF)cc1	150 °C
CC(CO)Oc1cc(Oc2ccc(C(=O)N3CCC3)cc2F)cc(C(=O)O)c1 (stereo unspecified)	133 °C
NCc1cn(CCC(=O)O)c(=S)n1[C@H]1CCc2c(F)cc(F)cc2C1	191 °C
O=C(O)c1ccc(Cl)c(NC(=O)C(CS)Cc2ccccc2)c1 (stereo unspecified)	189 to 191 °C
COc1cc2c(cc1O)CCN(C(=O)c1ccc(C#N)cc1)C2=O	198 to 199 °C
CC(C)Oc1ccc(N(N)C(=O)N(C)C)cc1Cl	73 to 74 °C
COc1cc(OCc2ccccn2)ccc1/C=C/c1cc(/C=C/c2ccc3ccn(Cc4ccccc4)c3c2)n[nH]1	89 to 93 °C
Cc1nc(C=O)cn1Cc1ccccc1	57 to 60 °C
Nc1cccc(C(=O)NCC23CC4CC(CC(C4)C2)C3)c1Cl	154 °C
Cc1cccc(CCC(O)(P(=O)(O)O)P(=O)(O)O)c1N	133 °C
COc1ccc(CCNc2nc(N)c(N)c(N)n2)cc1	134 to 138 °C
CCCCCCCCCCCCn1nnc(CCC(=O)Nc2c(OC)cc(OC)cc2OC)n1	86 to 88 °C
Cc1cc(C)nc(Oc2ccc([N+](=O)[O-])cc2)n1	108 to 110 °C

SMILES	melting point
CCN(CC)CCOc1cccc2c1c1cc(F)ccc1n2Cc1ccccc1	68 to 69 °C
CN(C)CCNS(=O)(=O)c1cccc([N+](=O)[O-])c1C(=O)O	193 °C
CS(=O)(=O)c1ccc(-c2nc(C(F)(F)F)[nH]c2-c2ccc(F)c(F)c2)cc1	249 to 252 °C
CN1CC2CC(=O)CC(C1)N2C	72 to 73 °C
Cc1nc(N2CCCC(Cc3ccccc3)C2=O)sc1C(=O)NCc1ccccc1 (stereo unspecified)	162 to 164 °C
OCc1nc(-c2ccc3c(c2)Nc2ccccc2S3)cs1	120 to 122 °C
CS(=O)(=O)c1[nH]nc(-c2ccc(F)cc2)c1-c1ccncc1	297 to 300 °C
Cc1cscc1NC(=S)Nc1c(N)c(F)c(F)c(F)c1F	286 to 290 °C
CC(C)(C)OC(=O)C1CCC2(CCn3c(cc4ccccc43)C2)C1=O (stereo unspecified)	129 to 131 °C
O=c1ccc2nc3ccc(F)cc3sc-2c1Cl	250 to 255 °C
COc1c(N)ccc2c1C(=CC#N)CC2	140 to 142 °C
CS(=O)(=O)c1ccc(-c2coc3ccc(-c4nnc(N)o4)cc23)cc1Cl	263 to 264 °C
CCOC(=O)c1c(C(F)(F)F)nc(C(F)F)c(C(=O)OC)c1Cl	24 to 25 °C
O=[N+]([O-])c1c(OC(F)(F)F)ccc2nc(Cl)sc12	64 °C
CCCCCCCCCCCCCCCCCCOCC(CO)OC(=O)N1CCOCC1 (stereo unspecified)	48 to 49 °C
COc1nsc(Cl)c1Cl	46 to 48 °C
CS(=O)(=O)c1ccc(-c2cnn(CC(F)(F)F)c(=O)c2-c2ccc(Cl)cc2)cc1	55 to 57 °C
CC(=O)c1ccc(CCCOc2c(C)cc(N3CN=C(C(F)(F)F)O3)cc2C)nn1	86 to 87 °C
CCOc1ccc(C=CC(=O)N2CCc3c([nH]c4ccccc34)C2c2ccc3c(c2)OCO3)cc1 (stereo unspecified)	199 to 200 °C
Nc1ccc(Oc2ccccc2Oc2ccc(N)cc2)cc1	135 to 136 °C
CNc1ccc2sc3ccc(Br)cc3c(=O)c2c1	198 to 200 °C
Cc1cc(NS(=O)(=O)c2ccccc2)cc(C)c1S(=O)(=O)C(Cl)(Cl)[N+](=O)[O-]	112 to 114 °C
Fc1cc(Cc2ccnc3c2Cc2ccccc2O3)ccn1	185 to 189 °C
